From PubChem BioAssay (NCI)
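Growth conditions: 96-well plates. Treatment: test compound, 48 hours, 5 concentrations. Analysis: linear interpolation between bracketing concentrations; unreached endpoints set to highest concentration. TGI is the concentration that stops growth completely.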

What was measured:
Test in all cases: growth of human tumour cells (NCI), 48 h
HCT-116 colon = tested on: HCT-116 colon
SK-MEL-28 melanoma = tested on: SK-MEL-28 melanoma
LOX IMVI melanoma = tested on: LOX IMVI melanoma
HT29 colon = tested on: HT29 colon
A549 NSCLC = tested on: A549 NSCLC
MOLT-4 leukemia = tested on: MOLT-4 leukemia
DU-145 prostate = tested on: DU-145 prostate
A498 renal = tested on: A498 renal
MALME-3M melanoma = tested on: MALME-3M melanoma
BT-549 breast = tested on: BT-549 breast

## CC1(O)CC(=O)c2c(cc3ccc(-c4c5c(c(O)c6c(O)cccc46)C(=O)CC(C)(O)C5)c(O)c3c2O)C1 (stereo not given)
HCT-116 colon
  TGI: 3.86 µM
SK-MEL-28 melanoma
  TGI: 7.01 µM
LOX IMVI melanoma
  TGI: 5.41 µM
HT29 colon
  TGI: 3.96 µM
A549 NSCLC
  TGI: 11.1 µM
MOLT-4 leukemia
  TGI: 8.36 µM
DU-145 prostate
  TGI: 3.43 µM
A498 renal
  TGI: 3.53 µM
MALME-3M melanoma
  TGI: 1.61 µM
BT-549 breast
  TGI: 6.75 µM

## Cc1ccc2c(c1C)C(=O)/C(=C/c1ccccc1C(=O)O)C2
HCT-116 colon
  TGI: > 100 µM
SK-MEL-28 melanoma
  TGI: > 100 µM
LOX IMVI melanoma
  TGI: > 100 µM
HT29 colon
  TGI: > 100 µM
A549 NSCLC
  TGI: > 100 µM
MOLT-4 leukemia
  TGI: > 100 µM
DU-145 prostate
  TGI: > 100 µM
A498 renal
  TGI: > 100 µM
MALME-3M melanoma
  TGI: > 100 µM
BT-549 breast
  TGI: > 100 µM

## COC(=O)c1c(O)ccc2c1c1c(n2Cc2cccc(C)c2)C(=O)c2ccccc2C1=O
HCT-116 colon
  TGI: 20.2 µM
SK-MEL-28 melanoma
  TGI: 29.1 µM
LOX IMVI melanoma
  TGI: 26.6 µM
HT29 colon
  TGI: 14 µM
A549 NSCLC
  TGI: 20.3 µM
MOLT-4 leukemia
  TGI: 17.5 µM
DU-145 prostate
  TGI: 32.6 µM
A498 renal
  TGI: 33.9 µM
MALME-3M melanoma
  TGI: 34.1 µM
BT-549 breast
  TGI: 29 µM

## C=C(CO[Si](C)(C)C(C)(C)C)C(C)=O
HCT-116 colon
  TGI: 27 µM
SK-MEL-28 melanoma
  TGI: 34.6 µM
LOX IMVI melanoma
  TGI: 24.7 µM
HT29 colon
  TGI: 40.7 µM
A549 NSCLC
  TGI: > 100 µM
MOLT-4 leukemia
  TGI: > 21.2 µM
DU-145 prostate
  TGI: > 100 µM
A498 renal
  TGI: > 100 µM
MALME-3M melanoma
  TGI: 39.7 µM
BT-549 breast
  TGI: 44 µM

## CC(C)(Oc1ccc(Cl)cc1)C(=O)N(C(=O)N1CCC(c2ccccc2)CC1)c1ccccc1
HCT-116 colon
  TGI: > 100 µM
SK-MEL-28 melanoma
  TGI: > 100 µM
LOX IMVI melanoma
  TGI: > 100 µM
HT29 colon
  TGI: > 100 µM
A549 NSCLC
  TGI: > 100 µM
MOLT-4 leukemia
  TGI: > 28.3 µM
DU-145 prostate
  TGI: > 100 µM
A498 renal
  TGI: > 100 µM
MALME-3M melanoma
  TGI: > 100 µM
BT-549 breast
  TGI: > 95.8 µM

## CCCCCCCCCCCCCCCCCCNc1ccn(C2OC(COP(=O)(O)OCC3OC(n4cc(F)c(NCCCCCCCCCCCCCCCCCC)nc4=O)CC3O)C(O)C2O)c(=O)n1 (stereo not given)
HCT-116 colon
  TGI: > 100 µM
SK-MEL-28 melanoma
  TGI: > 100 µM
LOX IMVI melanoma
  TGI: > 100 µM
HT29 colon
  TGI: > 100 µM
A549 NSCLC
  TGI: > 100 µM
MOLT-4 leukemia
  TGI: > 100 µM
DU-145 prostate
  TGI: > 100 µM
A498 renal
  TGI: > 100 µM
MALME-3M melanoma
  TGI: > 100 µM
BT-549 breast
  TGI: > 100 µM

## CCCC(=O)NC(Nc1ccc(S(=O)(=O)Nc2nc(C)cc(C)n2)cc1)(C(F)(F)F)C(F)(F)F
HCT-116 colon
  TGI: > 100 µM
SK-MEL-28 melanoma
  TGI: > 100 µM
LOX IMVI melanoma
  TGI: > 100 µM
HT29 colon
  TGI: > 100 µM
A549 NSCLC
  TGI: > 100 µM
MOLT-4 leukemia
  TGI: > 100 µM
DU-145 prostate
  TGI: > 100 µM
A498 renal
  TGI: > 100 µM
MALME-3M melanoma
  TGI: > 100 µM
BT-549 breast
  TGI: > 100 µM

## O=c1cc(N2CCN(c3cc(=O)n4ccccc4n3)CC2)oc2ccccc12
HCT-116 colon
  TGI: > 100 µM
SK-MEL-28 melanoma
  TGI: > 100 µM
LOX IMVI melanoma
  TGI: > 100 µM
HT29 colon
  TGI: > 100 µM
A549 NSCLC
  TGI: > 87.8 µM
MOLT-4 leukemia
  TGI: > 100 µM
DU-145 prostate
  TGI: > 100 µM
A498 renal
  TGI: > 100 µM
MALME-3M melanoma
  TGI: > 100 µM
BT-549 breast
  TGI: > 100 µM

## C#CCSC(C=C=C)P(=O)(OC(C)C)OC(C)C (stereo not given)
HCT-116 colon
  TGI: 62.8 µM
SK-MEL-28 melanoma
  TGI: > 100 µM
LOX IMVI melanoma
  TGI: > 100 µM
HT29 colon
  TGI: 94.5 µM
A549 NSCLC
  TGI: > 100 µM
MOLT-4 leukemia
  TGI: 65.2 µM
DU-145 prostate
  TGI: > 100 µM
A498 renal
  TGI: > 100 µM
MALME-3M melanoma
  TGI: > 100 µM
BT-549 breast
  TGI: 82.8 µM

## CCOP(=O)(OCC)C1CC(n2cc(C)c(=O)[nH]c2=O)OC1CO (stereo not given)
HCT-116 colon
  TGI: > 100 µM
SK-MEL-28 melanoma
  TGI: > 100 µM
LOX IMVI melanoma
  TGI: > 100 µM
HT29 colon
  TGI: > 100 µM
A549 NSCLC
  TGI: > 100 µM
MOLT-4 leukemia
  TGI: > 100 µM
DU-145 prostate
  TGI: > 100 µM
A498 renal
  TGI: > 100 µM
MALME-3M melanoma
  TGI: > 100 µM
BT-549 breast
  TGI: > 100 µM

## O=c1[nH]nc(-c2ccccc2)n1/N=C/c1cccnc1
HCT-116 colon
  TGI: > 100 µM
SK-MEL-28 melanoma
  TGI: > 100 µM
LOX IMVI melanoma
  TGI: > 100 µM
HT29 colon
  TGI: > 100 µM
A549 NSCLC
  TGI: > 100 µM
MOLT-4 leukemia
  TGI: > 100 µM
DU-145 prostate
  TGI: > 100 µM
A498 renal
  TGI: > 100 µM
MALME-3M melanoma
  TGI: > 100 µM
BT-549 breast
  TGI: > 100 µM

## CC[N+]1(C)CCC(O)(c2ccc(Cl)c(Cl)c2)C(C(=O)c2ccc(Cl)c(Cl)c2)C1 (stereo not given)
HCT-116 colon
  TGI: > 10 µM
SK-MEL-28 melanoma
  TGI: > 10 µM
LOX IMVI melanoma
  TGI: > 10 µM
HT29 colon
  TGI: > 10 µM
A549 NSCLC
  TGI: > 10 µM
MOLT-4 leukemia
  TGI: > 10 µM
DU-145 prostate
  TGI: > 10 µM
A498 renal
  TGI: > 10 µM
MALME-3M melanoma
  TGI: > 10 µM
BT-549 breast
  TGI: > 10 µM

## CC(=O)c1c(C(F)(F)F)n([O-])c2cc(Cl)c(Cl)cc2[n+]1=O
HCT-116 colon
  TGI: 1.61 µM
SK-MEL-28 melanoma
  TGI: 3.87 µM
LOX IMVI melanoma
  TGI: 0.489 µM
HT29 colon
  TGI: 2.54 µM
A549 NSCLC
  TGI: 1.91 µM
MOLT-4 leukemia
  TGI: 0.544 µM
DU-145 prostate
  TGI: 3.37 µM
A498 renal
  TGI: 2.5 µM
MALME-3M melanoma
  TGI: 2.47 µM
BT-549 breast
  TGI: 0.8 µM

## CCOC(=O)c1c(N2CCCC2)ncn(Cc2ccccc2)c1=S
HCT-116 colon
  TGI: > 100 µM
SK-MEL-28 melanoma
  TGI: > 100 µM
LOX IMVI melanoma
  TGI: > 100 µM
HT29 colon
  TGI: > 100 µM
A549 NSCLC
  TGI: > 100 µM
MOLT-4 leukemia
  TGI: > 100 µM
DU-145 prostate
  TGI: > 100 µM
A498 renal
  TGI: > 100 µM
MALME-3M melanoma
  TGI: > 100 µM
BT-549 breast
  TGI: > 100 µM

## COc1ccc(NC(C)=O)cc1N1C(=O)/C(=C\c2cc(OC)c(OC)c(OC)c2)SC1c1ccccc1 (stereo not given)
HCT-116 colon
  TGI: > 100 µM
SK-MEL-28 melanoma
  TGI: > 100 µM
LOX IMVI melanoma
  TGI: > 100 µM
HT29 colon
  TGI: > 100 µM
A549 NSCLC
  TGI: > 100 µM
MOLT-4 leukemia
  TGI: 65.6 µM
DU-145 prostate
  TGI: > 100 µM
A498 renal
  TGI: > 100 µM
MALME-3M melanoma
  TGI: > 100 µM
BT-549 breast
  TGI: > 100 µM

## C/C=C(/C)C(=O)O[C@H](C[C@@H](C)[C@H]1CC(c2ccoc2)OC1=O)[C@@]1(C)C(=O)CCC2O[C@]21C (stereo not given in full)
HCT-116 colon
  TGI: > 100 µM
SK-MEL-28 melanoma
  TGI: > 100 µM
LOX IMVI melanoma
  TGI: > 100 µM
HT29 colon
  TGI: > 100 µM
A549 NSCLC
  TGI: > 100 µM
MOLT-4 leukemia
  TGI: > 100 µM
DU-145 prostate
  TGI: > 100 µM
A498 renal
  TGI: > 100 µM
MALME-3M melanoma
  TGI: > 100 µM
BT-549 breast
  TGI: > 100 µM
